# Results from patent publication US9743665B2, “Fungicidal 3-{phenyl[heterocyclylmethoxy)imino]methyl}-oxadiazolone derivatives” (BAYER CROPSCIENCE AKTIENGESELLSCHAFT, priority 2013, dated 2017).
# Marks after values point to notes of the source that are not given here.
# How the values were obtained:
# Plasmopara viticola = test: Example J: Plasmopara test (grapevines)/preventive; assay type: in vivo; conditions: grapevine plants, preventive spray, 10 ppm of active ingredient, evaluated 6 days after inoculation
# Protocol: Example J: Plasmopara Test (Grapevines)/Preventive
# To produce a suitable preparation of active compound, 1 part by weight of active compound is mixed with the stated amounts of solvent and emulsifier, and the concentrate is diluted with water to the desired concentration.
# To test for preventive activity, young plants are sprayed with the preparation of active compound at the stated rate of application. After the spray coating has dried on, the plants are inoculated with an aqueous spore suspension of Plasmopara viticola and then remain for 1 day in an incubation cabinet at approximately 20° C. and a relative atmospheric humidity of 100%. The plant is subsequently placed for 4 days in a greenhouse at approximately 21° C. and a relative atmospheric humidity of approximately 90%. The plants are then misted and placed for 1 day in an incubation cabinet.
# The test is evaluated 6 days after the inoculation. 0% means an efficacy which corresponds to that of the untreated control, while an efficacy of 100% means that no disease is observed.
# Pyrenophora teres = test: Example E: in vivo preventive test on Pyrenophora teres (net blotch on barley); conditions: barley plants, preventive spray, 500 ppm of active ingredient, evaluated 14 days after inoculation
# Protocol: Example E: In Vivo Preventive Test on Pyrenophora teres (Net Blotch on Barley)
# (§1) The tested active ingredients are prepared by homogenization in a mixture of acetone/Dimethyl sulfoxide/Tween®, and then diluted with water to obtain the desired active material concentration.
# The young plants of barley are treated by spraying the active ingredient prepared as described above. Control plants are treated only with an aqueous solution of acetone/Dimethyl sulfoxide/Tween®.
# After 24 hours, the plants are contaminated by spraying the leaves with an aqueous suspension of Pyrenophora teres spores. The contaminated barley plants are incubated for 48 hours at 20° C. and at 100% relative humidity and then for 12 days at 20° C. and at 70-80% relative humidity.
# The test is evaluated 14 days after the inoculation. 0% means an efficacy which corresponds to that of the control plants while an efficacy of 100% means that no disease is observed.
# Phytophthora infestans [1] = assay type: in vivo; conditions: tomato plants, preventive spray, 500 ppm of active ingredient, evaluated 5 days after inoculation
# [2] = pH 2.7
# Protocol: (§4) Measurement of IogP values was performed according EEC directive 79/831 Annex V.A8 by HPLC (High Performance Liquid Chromatography) on reversed phase columns with the following methods:
# (§5) Measurement of LC-MS was done at pH 2.7 with 0.1% formic acid in water and with acetonitrile (contains 0.1% formic acid) as eluent with a linear gradient from 10% acetonitrile to 95% acetonitrile.
# (§6) Calibration was done with not branched alkan2-ones (with 3 to 16 carbon atoms) with known logP-values (measurement of logP values using retention times with linear interpolation between successive alkanones). lambda-maX-values were determined using UV-spectra from 200 nm to 400 nm and the peak values of the chromatographic signals.
# Phytophthora infestans [3] = assay type: in vivo; conditions: tomato plants, preventive spray (DMF/alkylaryl polyglycol ether), 500 ppm of active ingredient, evaluated 7 days after inoculation
# [4] = pH 2.7; remark: listed apart in the source
# Protocol: as §4, §5, §6
# Alternaria brassicae = test: Example A: in vivo preventive test on Alternaria brassicae (leaf spot on radish); conditions: radish plants, preventive spray, 500 ppm of active ingredient, evaluated 6 days after inoculation
# Protocol: Example A: In Vivo Preventive Test on Alternaria brassicae (Leaf Spot on Radish)
# as §1
# The young plants of radish are treated by spraying the active ingredient prepared as described above. Control plants are treated only with an aqueous solution of acetone/Dimethyl sulfoxide/Tween®.
# After 24 hours, the plants are contaminated by spraying the leaves with an aqueous suspension of Alternaria brassicae spores. The contaminated radish plants are incubated for 6 days at 20° C. and at 100% relative humidity.
# The test is evaluated 6 days after the inoculation. 0% means an efficacy which corresponds to that of the control plants while an efficacy of 100% means that no disease is observed.
# Pyricularia oryzae = assay type: in vivo; conditions: rice plants, preventive spray, 500 ppm of active ingredient, evaluated 6 days after inoculation
# Botrytis cinerea = test: Example B: in vivo preventive test on Botrytis cinerea (grey mould); conditions: gherkin plants, preventive spray, 500 ppm of active ingredient, evaluated 4 to 5 days after inoculation
# Protocol: Example B: In Vivo Preventive Test on Botrytis cinerea (Grey Mould)
# as §1
# The young plants of gherkin are treated by spraying the active ingredient prepared as described above. Control plants are treated only with an aqueous solution of acetone/Dimethyl sulfoxide/Tween®.
# After 24 hours, the plants are contaminated by spraying the leaves with an aqueous suspension of Botrytis cinerea spores. The contaminated gherkin plants are incubated for 4 to 5 days at 17° C. and at 90% relative humidity.
# The test is evaluated 4 to 5 days after the inoculation. 0% means an efficacy which corresponds to that of the control plants while an efficacy of 100% means that no disease is observed.
# Septoria tritici = test: Example G: in vivo preventive test on Septoria tritici (leaf spot on wheat); conditions: wheat plants, preventive spray, 500 ppm of active ingredient, evaluated 24 days after inoculation
# Protocol: Example G: In Vivo Preventive Test on Septoria tritici (Leaf Spot on Wheat)
# as §1
# (§2) The young plants of wheat are treated by spraying the active ingredient prepared as described above. Control plants are treated only with an aqueous solution of acetone/Dimethyl sulfoxide/Tween®.
# After 24 hours, the plants are contaminated by spraying the leaves with an aqueous suspension of Septoria tritici spores. The contaminated wheat plants are incubated for 72 hours at 18° C. and at 100% relative humidity and then for 21 days at 20° C. and at 90% relative humidity.
# The test is evaluated 24 days after the inoculation. 0% means an efficacy which corresponds to that of the control plants while an efficacy of 100% means that no disease is observed.
# Uromyces appendiculatus = test: Example H: in vivo preventive test on Uromyces appendiculatus (bean rust); conditions: bean plants, preventive spray, 500 ppm of active ingredient, evaluated 11 days after inoculation
# Protocol: Example H: In Vivo Preventive Test on Uromyces appendiculatus (Bean Rust)
# as §1
# The young plants of bean are treated by spraying the active ingredient prepared as described above. Control plants are treated only with an aqueous solution of acetone/Dimethyl sulfoxide/Tween®.
# After 24 hours, the plants are contaminated by spraying the leaves with an aqueous suspension of Uromyces appendiculatus spores. The contaminated bean plants are incubated for 24 hours at 20° C. and at 100% relative humidity and then for 10 days at 20° C. and at 70-80% relative humidity.
# (§3) The test is evaluated 11 days after the inoculation. 0% means an efficacy which corresponds to that of the control plants while an efficacy of 100% means that no disease is observed.
# Puccinia recondita = test: Example D: in vivo preventive test on Puccinia recondita (brown rust on wheat); conditions: wheat plants, preventive spray, 500 ppm of active ingredient, evaluated 11 days after inoculation
# Protocol: Example D: In Vivo Preventive Test on Puccinia recondita (Brown Rust on Wheat)
# as §1, §2
# After 24 hours, the plants are contaminated by spraying the leaves with an aqueous suspension of Puccinia recondita spores. The contaminated wheat plants are incubated for 24 hours at 20° C. and at 100% relative humidity and then for 10 days at 20° C. and at 70-80% relative humidity.
# as §3
SMILES,Eff. % (Plasmopara viticola) [%],% efficacy (Pyrenophora teres) [%],% efficacy (Phytophthora infestans [1]) [%],LogP [2],further results
Cn1c(/C(=N\OCc2nc(NC(=O)OC(C)(C)C)cs2)c2ccccc2)noc1=O [Example 6],99,80,100,3.64^[a],
"CCCCCOC(=O)Nc1ccn(CO/N=C(/c2ccccc2)c2nc(=O)on2C)n1 [Example 7, pentyl {1-[({[(Z)-(2-methyl-5-oxo-2,5-dihydro-1,2,4-oxadiazol-3-yl)(phenyl)methylene]amino}oxy)methyl]-1H-pyrazol-3-yl}carbamate]",85,,,,Eff. % (Phytophthora infestans [3]): 100%; chromatographic logP [4]: 3.06
Cn1c(/C(=N\OCc2nc(C#CC3CC3)cs2)c2ccccc2)noc1=O [Example 10],,,100,3.56^[a],% efficacy (Alternaria brassicae): 97%
Cn1c(/C(=N\OCc2nc(C#Cc3ccc(F)cc3)cs2)c2ccccc2)noc1=O [Example 13],,,95,4.09^[a],% efficacy (Pyricularia oryzae): 79%
Cn1c(/C(=N\OCc2nc(C(=O)NCCc3ccccc3)cs2)c2ccccc2)noc1=O [Example 15],75,,100,3.27^[a],% efficacy (Botrytis cinerea): 73%
Cn1c(/C(=N\OCc2nc(C(=O)Nc3ccccc3)cs2)c2ccccc2)noc1=O [Example 16],,71,80,3.29^[a],% efficacy (Septoria tritici): 79%
CCCCCCNC(=O)c1csc(CO/N=C(/c2ccccc2)c2noc(=O)n2C)n1 [Example 18],,71,99,3.76^[a],% efficacy (Uromyces appendiculatus): 72%
Cn1c(/C(=N\OCc2nc(C#CCCCc3ccccc3)cs2)c2ccccc2)noc1=O [Example 20],,,90,4.68^[a],% efficacy (Puccinia recondita): 78%; % efficacy (Uromyces appendiculatus): 81%
